In US20090221621A1, “Methods of Reducing Alcohol-Induced Dose Dumping for Opioid Sustained Release Oral Dosage Forms” (priority 2005, published 2009):

Assay: Release test of matrix tablets, USP Type VII, 40% EtOH/water 0-4 hrs then water vs water only (Examples 9-11)
Format: physicochemical
Settings: oxycodone HCl and hydromorphone HCl 30 mg tablets with vs without stearyl alcohol, FIGS. 12 and 13
Procedure: Ten grams each of formulations with and without stearyl alcohol were prepared via wet granulation technique. The amounts set forth in Tables 5 and 6 of oxycodone hydrochloride, lactose and Eudragit® RS PO were combined in an appropriate vessel and blended for 5 minutes. The powder mixture was granulated with water until a moist mass was produced. The wet mass was then passed through a 16-mesh size screen and was allowed to dry overnight at ambient conditions. In a small vessel, the required amount of stearyl alcohol (a stiffening agent) was melted over a water bath. Keeping the molten stearyl alcohol in the water bath, the desired amount of dried granules were added and mixed until the granules were sufficiently coated with the molten stearyl alcohol. The mixture was removed from the water bath and allowed to cool at ambient conditions before sizing through a 16-mesh screen. Talc and magnesium stearate were added to the coated granules and blended using a suitable blender. The granules were then compressed to 375 mg tablets using an appropriate tabletting machine, such as a Carver press. For granules that were not coated with stearyl alcohol, granules were compressed to 300 mg tablets.
The same manufacturing procedure as Example 7 was used, with the substitution of hydromorphone HCl instead of oxycodone HCl.
Samples for this test came from Examples 7 and 8. […]

Structure (SMILES): CCCCCCCCCCCCCCCCCCO [Stearyl alcohol, stearyl alcohol]
- Effect of the excipient on ethanol effect on opioid release functionality: suppressed ethanol effect on opioid functionality
